Marks after values point to notes of the source that are not given here.
How the values were obtained:
mongrel guinea-pigs = experiment: Food anaphylaxis (active anaphylactic shock) in OVA-sensitized guinea pigs; conditions: oral 3 days before provoking anaphylaxis
hydroxyl radical = experiment: Hydroxyl radical formation in the Fenton reagent (chemiluminescence); format: biochemical
Protocol: Active oxygen forms (AOF) of different nature were generated in the following systems: • A. Hydroxyl radical - in the mixture of FeSO4 with H2O2 (the Fenton reagent) [Halliwell B. Superoxide-dependent formation of hydroxyl radicals in the presence of iron salts. […] Incubation medium comprised 5 mM KH2PO4 (pH 7.4); 5 mM FeSO4; 2 mM luminol. H2O2 at final concentration 5 mM was introduced into a cuvette through a dispencer following background luminescence recording of the reagents' mixture. 5 to 10 ml of the test compounds dissolved in water were at needed concentration introduced into a cuvette.
CL flash recording duration after mixing ingredients, depended on a particular process kinetics. For each system, CL light sum (mV) was determined in the control samples without preparations (I-) and in samples comprising respective concentrations of preparations (I+). To estimate CL inhibition (activation) degree, the I+/I- ratio (in relative units) was found in the studied systems.
When H2O2 was introduced into phosphate buffer comprising iron sulfate, CL flash occured which was caused by formation of predominantly hydroxyl radical in the reaction mixture.

peritoneal mast cells = experiment: Histamine secretion by peritoneal mast cells of sensitized rats; format: in vivo, Wistar male rats; conditions: intraperitoneal 3 days; for Stimulated secretion, percent: OVA-stimulated
Protocol: Effects on histamine release. […] 2 ml of cellular suspension containing 0.1-0.2 x 10^6 MC/ml were incubated in the presence of […] OVA. Histamine secretion was expressed in percent to its total level. Histamine amount in samples was determined using spectrofluorimetric method [Short P.A., Burkhalter A., Cohn V.N. A method for fluorimetric assay of histamine in tissues. J. Pharmacol. Exper.
Animals of the control group were intraperitonelly injected normal saline (group 1). Each group included 10 animals.

mongrel male mice [1] = experiment: Passive cutaneous anaphylaxis reaction; format: in vivo; conditions: PCA, oral 3 days
Protocol: Experiments were carried out on mongrel male mice with initial body mass 22-24 g. Each group included 10 animals. Sensibilization of animals was accomplished by intradermal injection of 20-30 µl of the serum of mice obtained from preliminaryly immunized animals comprising reagent antibodies against chicken ovalbumin (OVA). […] In 48 hours after sensibilzation an anaphylaxis-provoking OVA dose (1 mg and 0,2 ml Evans blue in 0.2 ml normal saline) were intravenously injected to mice. Passive cutaneous anaphylaxis reaction intensity (PCA) was determined in 30 minutes by the size (area) of a blue spot on the internal skin surface in the site of reagent anibodies' administration. Spot size was measured in two mutually perpendicular directions and the result was expressed in mm^2.

[2] = tested on: hepatic P-450 cytochrome system; experiment: Hexenal sleep duration in mice; format: in vivo; conditions: CBF1 mice; oral 3 days, 50 µg/kg; control 25.91 ± 1.57
How it was run: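 Male mice (several inbred/hybrid lines, 18-20 g, n=10) and mongrel male guinea pigs (250-300 g, n=24) given compounds orally in drinking water for three days at 50 and 500 µg/kg. Hexenal given 24 h after last dose ([…]); sleep duration recorded in minutes.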

mongrel male mice [3] = experiment: Delayed hypersensitivity induced by picryl chloride (TCB), local ointment; format: in vivo; conditions: mice, TCB
Protocol: Effect study of the compounds on the delayed type hypersensitivity reaction induced in mice by 2.4.6-trichlorobenzol (TCB) was carried out according to the method of Tarayre et al. [Tarayre J.P., Barbara M., Aliaga M., Tisne-Versilles. Comparative actions of immunosuppressants, glucocorticoids and non-steroidal antiinflammatory drugs on various models of delayed hypersensitivity and on a non-immune inflammation in mice. Arzneim.-Forsch. Drug Res. (1990), Vol. 40, pip.1125-1131].
Studies were conducted on mongrel male mice with initial body mass 30-35 g. Each group included 10 animals. Mice were sensitized with 0.1 ml 3% TCB solution in acetone application on a shaved abdominal area. In 7 days, the anaphylaxis-provoking TCB dose (0.025 ml of 3% solution) was applied on both surfaces of the right ear. In 30 minutes 0.05 ml of the test ointment were rubbed into the same surfaces. 24 hours after edema induction, mice were sacrified, ears were cut off and weighed. Allergic reaction intensity was assessed by change in weight in grams of the right ear (the test one) in relation to the left ear (the control ear).
Allergic reaction inhibition expressed in percent was calculated according to the formula: 100-[(R-L(exper.))/(L):(R-L(control))/(L)x100](%) [formula] where R - the right ear weight, L - the left ear weight.
The test compounds were applied on the ear in the form of 1% and 5% ointment the base of which were 10% methylcellulose solution and propylene glycol at 1:1 ratio.
Groups of animals: • Group 1 - control, ointment base without active substance was applied on the ear of animals. • Group 2 - ointment base comprising 1% compound III was applied on the ear of animals. • Group 3 - ointment base comprising 1% compound XVII was applied on the ear of animals. • Group 4 - ointment base comprising 5% compound XLVIII was applied on the ear of animals.

white mongrel male rats = experiment: Paw edema induced by Freund's complete adjuvant; format: in vivo; conditions: rats, FCA edema
Protocol: Experiment was carried out on white mongrel male rats weghing 280-300 g. The model of paw edema induced by Freund's complete adjuvant (FCA), was reproduced according to the method of Ezamuzie and Umezurike [Ezamuzie Ch., Umezurike C.C. Effect of histamine H2-receptor antagonists on acute inflammatory of the rat paw oedema. J. Pharmacol. (1989), Vol. 41, pp. 261-265]. Paw volume measurement was done using a plethysmograph (Ugo Basile). Inhibition of inflammatory reaction expressed in percent, as calculated according to the formula: 100-[(R-L(exper.))/(L):(R-L(control))/(L)x100](%) [formula] where R - the right paw volume, L - the left paw volume.
Each group included 10 animals.
Group of animals: • Group 1 - control, animals were administered 0.5 ml of 1% starch solution. • Group 2 - animals were administered the compound XLVIII. • Group 3 - animals were administered the compound III. • Group 4 - animals were administered Naproxene.

[4] = tested on: Strain Aichi of type A human influenza virus; format: in vivo; conditions: 50 µg/kg orally
Male guinea pigs = experiment: Antigen-induced bronchospasm in actively sensitized guinea pigs; format: in vivo; conditions: sensitized guinea pigs; 50 µg/kg per os, 72, 48 and 18 hours prior to bronchospasm induction
Protocol: Antiasthmatic effect of the test compounds was studied using an antigen-induced bronchospasm model in actively sensitized guinea pigs according to the Andersson method [Andersson P. Antigen induced bronchial anaphylaxis in actively sensitized guinea pig. Allergy (1980), Vol. 35, pp. 65-71].
Male guinea pigs were sensitized with intramuscular injection of 0.5 ml suspension comprising 20 micrograms ovalbumin (OVA, manufactured by the Sigma company [grade III]) and 100 mg Al(OH)3 per one animal. Anaphylaxis-provoking dose 150-200 µg/kg OVA in 0.1 ml normal saline was intravenously (v. jugularis) injected on day 26 after sensibilization. Bronchospasm induction and measuring external respiration parameters were carried out according to the method described in Yu-Hong L., Barnes P., Rogers D. Inhibition of neurogenic plasma exudation and bronchoconstriction by a K+ channel activator, BRL 38227, in guinea pig airways in vivo. Europ. J. Pharmacol. (?), Vol. 239, pp.257-259]. Measurement of respiration parameters was performed using a transducer (Ugo Basel, model 7020), connected with a cannula and a recorder (Millichrome), recording breathing amplitude. […] Efficacy of compounds was determined by change in bronchospasm value.
Inthal was used as a reference drug that was administered to animals at a dose 5 µg/kg according to the same dosage regimen as the test substances were administered. The control group of animals received equivalent amount of normal saline.
Groups of animals: group 1 - control; group 2 - animals given Inthal; group 3 - animals given oral compound XLIV; group IV - animals given oral compound III; group 5 - animals given intratracheal compound III; group 6 - animals given compound XLIX, group 7 - animals given compound XXXI, group 8 - animals given compound XLVI; group 9 - animals given compound VI, group 10 - animals given compound XLVIII.

mongrel mice = experiment: Acute hypobaric hypoxia model (AHBH); format: in vivo; conditions: single administration, 300,000 µg/kg
Protocol: (§1) The tests of determining average lifetime of animals in a closed volume and on the model of acute hypobaric hypoxia at the minimum atmospheric rarefaction (170-185 mm Hg) were used to study antihypoxic activity of the compunds of general formula (I).
Simulation of AHBH was done in a flow-through chamber at temperature 22°C. Experiments were carried out on mongrel mice with initial body mass 20 g at the minimum rarefaction 170-185 mm Hg, that corresponds to the altitude of 10500-11000 m. Lift rate was 35 m/second. Each group included 15 animals. Compounds were administered orally, lift on to altitude was performed 2 hours after the last administration.
Groups of animals: • Group 1 - intact control -administration of normal saline four times. • Groups 2 and 3 - administration of the compound III at doses 50 and 500 µg/kg for 4 days. • Group 4 - single administration of sodium oxybutyrate at a dose […].

mongrel male mice [5] = experiment: Average lifetime of mice in a closed volume (hypoxia); format: in vivo; conditions: without preliminary hypoxia, oral 2 hours before hypoxia, 300 mg/kg
Protocol: as §1
Mice were one by one placed into sealed glass jars and their lifetime was recorded.
The experiment was carried out on 90 mongrel male mice having initial body mass 20 ± 0,5 g housed in cages by 10 animals and given a standard vivarium ration. Average lifetime of mice in closed vessels having volume 250 ml was preliminarily determined and it was 22 to 25 minutes. All the groups included 10 animals each.
Experimental protocol: • a) - preliminary hypoxia for 12 minutes; • b) - first administration of a compound immediately following preliminary hypoxia; • c) - second administration of a compound in 24 hours after the first one, then daily for three days; • d) - recording lifetime of animals under hypoxic conditions in a sealed space 2 hours after the last administration of a compound.
The test compounds were dissolved in distilled water and orally administered to animals for 5 days.
Experimental groups: • Group 1 -(control) - without preliminary hipoxia with oral administration of distilled water for 5 days; • Groups 2 and 3 - administration of the compound XLIV using two doses 50 and 500 µg respectively; • Group 4 - oral administration of sodium oxybutyrate at a dose […] 2 hours before hypoxia; • Group 5 -(control)- with preliminary hypoxia for 12 minutes with subsequent administration of distilled water for 5 days; • Groups 6 and 7 - administration of the compound XLIV using two doses 50 and 500 µg respectively; • Groups 8 and 9 - administration of the compound III using two doses 50 and 500 µg respectively.

[6] = intragastral four times 50 µg/kg

SMILES: N[C@H](CCC(=O)NCCc1c[nH]cn1)C(=O)O [compound XLV, γ -L-, D-glutamylhistamine]
- Anaphylactic index (mongrel guinea-pigs; 50 µg/kg): 0.90*
- Lethality in percent (mongrel guinea-pigs; 50 µg/kg): 6.7** percent
- Seizures in percent (mongrel guinea-pigs; 50 µg/kg): 15.5* percent
- relative effect: I+/I- (hydroxyl radical; 1 µM): 1.0
- Chemiluminiscence intensity (mV) + σn-1 (hydroxyl radical; 1 µM, control of the series as in the table): 7666 ± 101 mV
- relative effect: I+/I- (hydroxyl radical; 0.01 mM): 0.95
- Chemiluminiscence intensity (mV) + σn-1 (hydroxyl radical; 0.01 mM, control of the series as in the table): 7443 ± 267 mV
- relative effect: I+/I- (hydroxyl radical; 0.1 mM): 0.74
- Chemiluminiscence intensity (mV) + σn-1 (hydroxyl radical; 0.1 mM, control of the series as in the table): 5800 ± 247 mV
- relative effect: I+/I- (hydroxyl radical; 1 mM): 0.16
- Chemiluminiscence intensity (mV) + σn-1 (hydroxyl radical; 1 mM, control of the series 7839 ± 171, 1120 ± 163, 4974 ± 283 or 1332 ± 172): 2195 ± 18 mV
- Stimulated secretion, percent (peritoneal mast cells; 50 µg/kg): 2.32*^1,3%
- Histamine level, µg/10^6 MC (peritoneal mast cells; 50 µg/kg): 16.90*^1 µg/10^6 MC
- Spontaneous secretion, percent (peritoneal mast cells; 50 µg/kg): 9.63*^1,3%

SMILES: CN(C)CCN(Cc1ccc(Cl)cc1)c1ccccn1 [Suprastine, reference compound]
- Percent of the reaction inhibition (mongrel male mice [1]; 10 µg/kg): 7.6%
- Reaction intensity, mm^2 (mongrel male mice [1]; 10 µg/kg): 82.1 ± 18.1 mm^2
- Stimulated secretion, percent (peritoneal mast cells; 1000 µg/kg): 7.02%
- Histamine level, µg/10^6 MC (peritoneal mast cells; 1000 µg/kg): 16.24*^1 µg/10^6 MC
- Spontaneous secretion, percent (peritoneal mast cells; 1000 µg/kg): 5.62%

SMILES: N[C@@H](CCC(=O)NCCc1c[nH]c2ccccc12)C(=O)O [compound XLVIII, γ -L-glutamyltryptamine]
- Hexenal sleep duration (minutes) [2]: 16.27 ± 1.26** minutes
- Reaction inhibition (%) (mongrel male mice [3]; 5% ointment): 54%
- weight increment (mongrel male mice [3]; 5% ointment): 3.7 ± 0.81 g
- Weight of years (g) Right (mongrel male mice [3]; 5% ointment on right ear 30 minutes after challenge, 24 hours): 17.9 ± 0.94 g
- Weight of years (g) left (mongrel male mice [3]; left (control) ear of animals given 5% ointment): 14.2 ± 0.98 g
- Inflammation inhibition (%) (white mongrel male rats; [6]): 19%
- Volume increment (white mongrel male rats; [6]): 0.65 ± 0.04
- Volume of paws (conditional units) left (white mongrel male rats; [6]): 1.30 ± 0.62 conditional units
- Volume of paws (conditional units) Right (white mongrel male rats; intragastral four times 50 µg/kg 72, 48, 24 and 1 hour before FCA): 1.95 ± 0.48 conditional units
- MLT, days ([4]; series with control - 1 (5.76), 3 days before and 10 days following infection): 9.58*^1 days
- Survival rate in percent ([4]; series with control - 1 (16.7)): 34.5*^1%
- Protection degree in percent ([4]; series with control - 1): 17.8%
- Bronchospasm (percent of the maximum value) (Male guinea pigs): 22.0 3.4* percent of the maximum value

SMILES: CCOC(=O)N1CCC(=C2c3ccc(Cl)cc3CCc3cccnc32)CC1 [Claritine, reference compound]
- Percent of the reaction inhibition (mongrel male mice [1]; 2 µg/kg): 92.8%
- Reaction intensity, mm^2 (mongrel male mice [1]; 2 µg/kg): 6.4 ± 2.3**^2 mm^2
- Anaphylactic index (mongrel guinea-pigs; 1000 µg/kg): 2.03
- Lethality in percent (mongrel guinea-pigs; 1000 µg/kg): 25.0%
- Seizures in percent (mongrel guinea-pigs; 1000 µg/kg): 53.3%

SMILES: O=C(O)CCCO [sodium oxybutyrate, reference compound]
- Effect in percent (mongrel mice; lifetime relative to control): 119 ± 4,4%
- Lifetime under hypoxic conditions (minutes) (mongrel mice; mice, 170-185 mm Hg): 364,3 ± 13,5 minutes
- Lifetime (seconds) (mongrel male mice [5]): 2103,9±100,5**^1 seconds

— EP2229935A1, “Peptide derivatives or pharmaceutically acceptable salts thereof, method for producing the same, use of said derivatives and pharmaceutical composition” (Nebolsin, Vladimir Evgenievich, priority 1997, dated 1999)
